Test results taken from US20100137433A1, “Production of Rosmarinic Acid from Spearmint and uses Thereof” (priority 2007, published 2010).

Experiments:
[1] = tested on: mild allergic asthmatic subjects; assay: Methacholine inhalation test (methacholine PC20, airway hyper-responsiveness); format: in vivo, human; conditions: tea 2 cups per day for 7 days
Procedure: (§1) Subjects. Two subjects (45 and 57 year old, male) were recruited for the study. Inclusion criteria required subjects to be non-smokers with stable, mild atopic asthma, free of other lung disease. Subjects were required to have FEV1 (forced expiratory volume in 1 second)>70% of predicted, baseline methacholine PC20 (the provocative concentration of methacholine causing a 20% fall in FEV1)<16 mg/mL, and development of an allergen-induced EAR (at least 20% fall in FEV1 within 2 h post allergen inhalation) and LAR (at least 15% fall FEV1 between 3-7 h post allergen inhalation).
(§2) Study design. Subjects meeting the inclusion criteria underwent allergen challenge with placebo and rosmarinic acid, in this order, separated by a washout period of at least 4 weeks. Placebo was inhaled PBS on 2 consecutive mornings before challenge. Rosmarinic acid treatment consisted of 7 days of 2 cups of tea per day. Day 6 consisted of pre-dose measurements of airway hyperresponsiveness and sputum cells. On Day 7 allergen inhalation challenge was performed. Measurements of FEV1 were taken at regular intervals until 7 h after challenge and sputum cells were then collected. […]
Methacholine inhalation challenge was performed as described by Cockcroft (1985). The test was terminated when a fall in FEV1 of 20% of the baseline value occurred, and the methacholine PC20 is calculated.

[2] = tested on: mild allergic asthmatic subjects; assay: Allergen inhalation challenge (allergen-induced bronchoconstriction, EAR and LAR); format: in vivo, human
Procedure: as §1, with “(person)” for “(45 and 57 year old, male)”
as §2
Allergen challenge was performed as described by O'Byrne (1987), and the concentration of allergen extract (Omega Laboratories, Montreal, QC) for inhalation was determined from a formula described by Cockcroft et al. (1987). […]

[3] = tested on: mild allergic asthmatic subjects; assay: Sputum analysis (allergen-induced airway inflammation, sputum eosinophils); format: in vivo, human; conditions: vs placebo, two subjects, FIGS. 4A-4B
Procedure: as §1, with “(person)” for “(45 and 57 year old, male)”
as §2
Sputum was induced and processed using the method described by Pizzichini et al. (1996). Differential cell counts were obtained and an aliquot of cells were lysed for quantitative PCR measurements.

[4] = Stability of rosmarinic acid in dried and stored spearmint 700B tissues; format: physicochemical; conditions: heated to 80° C. for an additional 24 hours after drying to 11.7% moisture
Procedure: The level of rosmarinic acid in dried and stored samples of spearmint line 700B tissues was followed over time to determine its stability. Spearmint plant tissue was harvested, dried, and stored, and levels of rosmarinic acid were determined essentially as described by Fletcher et al., (2005a). Plant material was harvested manually from the field and placed in large net bags. The bagged mint […] spread evenly over a grate and dried in a drying oven at a temperature of 35° C. for 96 hours. The stems and other debris were separated from the leaves, and the leaves were crushed to a size suitable for tea. The crushed leaf material was transferred to zip-lock bags and stored at room temperature in the absence of light. Additionally, to study the effect of drying temperature on stability of RA, a sample of spearmint plant material was dried to 11.7% moisture as above for determination of RA content. After 96 hours, a sample of the material was placed into a drying oven and heated to 80° C. for an additional 24 hours, and RA levels were also determined.

[5] = cited from earlier work
Aβ25-35-injected mice = conditions: Aβ25-35 injection; cited from earlier work
[6] = tested on: mice exposed to diesel dust particulates; conditions: 2 mg/day for 3 days prior to exposure; cited from earlier work
[7] = tested on: seasonal allergic rhinitis; conditions: active treatment; cited from earlier work

Amount of RA in the tissues before and after the 80° C. drying step [4]: remained the same
SMILES: O=C(/C=C/c1ccc(O)c(O)c1)O[C@H](Cc1ccc(O)c(O)c1)C(=O)O [RA, α-O-caffeoyl-3,4-dihydroxyphenyl-lactic acid]
Methacholine PC20 ([1]; subject 19, 24 h post allergen challenge (cat)): 0.38 mg/mL
Methacholine PC20 ([1]; subject 20, 24 h post allergen challenge (HDMDP)): 1.27 mg/mL
Allergen-induced EAR ([2]; subject #20, vs placebo, allergen 1:128 dilution with RA, 1:64 with diluent): lower
Effect on the allergen-induced EAR or LAR ([2]; two subjects, limited sample size): does not appear to have any effect
% sputum eosinophils post allergen [3]: consistently lower
Recovery of intact rosmarinic acid and metabolites in urine ([5]; rat urine): 0.077 % of the amount ingested
Time to full concentration in the blood plasma ([5]; rats, absorbed via the small intestine): ≤ 30 min
Effective lowest dose preventing Aβ25-35-induced nitration of proteins in the hippocampus (Aβ25-35-injected mice): 0.25 mg/kg
Protein and DNA damage in lung tissue (postmortem histological staining) compared to controls [6]: marked decrease
Numbers of neutrophils and eosinophils in nasal lavage fluid [7]: significantly decreased
